# Where two headings read alike, the source gives them in different places.
# Key:
# PC9/ER cells = experiment: Cell viability assay (CellTiter-Glo 2.0), erlotinib-resistant PC9/ER cells; type: cell-based; details: Homo sapiens, PC-9/ER, 72 h drug treatment, read-out: Relative cell viability, IC50 PC9ER
# Text: (§1) To explore c-MET and AXL mechanisms of EGFR TKI resistance, resistant cells of the EGFR TKI hypersensitive EGFR exon 19 mutant NSCLC cell line, HCC827 and PC9 were generated by exposing these cells to increasing concentrations of EGFR TKI for over 3 months.
# (§2) Gefitinib-resistant cells were referred to as HCC827/GR. […] Osimertinib-resistant cells were referred to as HCC827/OR.
# HCC827/GR cells = experiment: Cell viability assay (CellTiter-Glo 2.0), gefitinib-resistant HCC827/GR cells; type: cell-based, human; details: Homo sapiens, HCC827, 72 h drug treatment, read-out: Relative cell viability, IC50 HCC827GR
# Text: as §1
# The human cell line HCC827 was purchased from the American Type Culture Collection (Manassas, VA), and the PC9 cell line was obtained from RIKEN Cell Bank (Ibaraki, Japan). […] Gefitinib-resistant cells were referred to as HCC827/GR. […] Osimertinib-resistant cells were referred to as HCC827/OR.
# (§3) Cell viability assays were carried out by plating 1,000 cells per well of HCC827 or PC9 resistant cells, respectively, into white transparent-bottom 384-well plates. The cells were treated with each TKI across a 10-dose range from 1 nM to 10,000 nM. After 72 h of drug treatment, cell viability was measured using the CellTiter-Glo 2.0 assay (Promega, Madison, WI).
# as §3
# HCC827/ER cells = experiment: Cell viability assay (CellTiter-Glo 2.0), erlotinib-resistant HCC827/ER cells; type: cell-based, human; details: Homo sapiens, HCC827ER, read-out: Relative cell viability
# Text: as §1, §2
# HCC827/OR cells = experiment: Cell viability assay (CellTiter-Glo 2.0), osimertinib-resistant HCC827/OR cells; type: cell-based, human; details: Homo sapiens, HCC827, 72 h drug treatment, read-out: Relative cell viability, IC50 HCC827OR
# Text: as §1, §2
# [1] = Table 4, combinations of EGFR TKIs and inhibitor of Formula (I)
# [2] = Table 4, 72 h drug treatment, combinations of EGFR TKIs and inhibitor of Formula (I)
# [3] = Table 2, EGFR TKI resistant cells, combination with EGFR TKI
# [4] = Table 2, 72 h drug treatment, EGFR TKI resistant cells, combination with EGFR TKI
Compound,IC50 (PC9/ER cells; [1]) [µM],IC50 (HCC827/GR cells; [1]) [µM],IC50 (HCC827/ER cells; [2]) [µM],IC50 (HCC827/OR cells; [1]) [µM],IC50 (PC9/ER cells; [3]) [µM],IC50 (HCC827/GR cells; [3]) [µM],IC50 (HCC827/ER cells; [4]) [µM],IC50 (HCC827/OR cells; [3]) [µM]
"Cn1nc(C(=O)Nc2ccc(Oc3ccnc(N)c3C#CCN3CCOCC3)c(F)c2)c(=O)n(-c2ccc(F)cc2)c1=O [Example 49, N-(4-(2-amino-3-(3-morpholinoprop-1-ynyl)pyridin-4-yloxy)-3-fluorophenyl)-4-(4-fluorophenyl)-2-methyl-3,5-dioxo-2,3,4,5-tetrahydro-1,2,4-triazine-6-carboxamide]",< 1,< 1,< 10,< 10,,,,
"Cc1nc(Cn2cc(C(=O)Nc3ccc(Oc4ccnc(N)c4C#CC(C)(C)N4CCN(C)CC4)c(F)c3)c(=O)n(-c3ccc(F)cc3)c2=O)cs1 [Example 42, N-(4-((2-amino-3-(3-methyl-3-(4-methylpiperazin-1-yl)but-1-yn-1-yl)pyridin-4-yl)oxy)-3-fluorophenyl)-3-(4-fluorophenyl)-1-((2-methylthiazol-4-yl)methyl)-2,4-dioxo-1,2,3,4-tetrahydropyrimidine-5-carboxamide]",< 1,< 0.1,< 0.1,< 1,,,,
"C=CCn1cc(C(=O)Nc2ccc(Oc3ccnc(N)c3C#CC(C)(C)N3CCOCC3)c(F)c2)c(=O)n(CC=C)c1=O [Example 70, 1,3-diallyl-N-(4-(2-amino-3-(3-methyl-3-morpholinobut-1-ynyl)pyridin-4-yloxy)-3-fluorophenyl)-2,4-dioxo-1,2,3,4-tetrahydropyrimidine-5-carboxamide]",< 10,< 1,< 1,< 1,,,,
"CC(C)n1cc(C(=O)Nc2ccc(Oc3ccnc(N)c3C#CCN3CCN(C)CC3)c(F)c2)c(=O)n(-c2ccc(F)cc2)c1=O [Example 26, N-(4-(2-amino-3-(3-(4-methylpiperazin-1-yl)prop-1-ynyl)pyridine-4-yloxy)-3-fluorophenyl)-3-(4-fluorophenyl)-1-isopropyl-2,4-dioxo-1,2,3,4-tetrahydropyrimidine-5-carboxamide]",,,,,< 1,< 0.1,< 0.01,< 0.01
"COCCN1CCN(C(C)(C)C#Cc2c(Oc3ccc(NC(=O)c4cn(C(C)C)c(=O)n(-c5ccc(F)cc5)c4=O)cc3F)ccnc2N)CC1 [Example 20, N-(4-(2-amino-3-(3-(4-(2-methoxyethyl)piperazin-1-yl)-3-methylbut-1-ynyl)pyridin-4-yloxy)-3-fluorophenyl)-3-(4-fluorophenyl)-1-isopropyl-2,4-dioxo-1,2,3,4-tetrahydropyrimidine-5-carboxamide]",,,,,< 0.01,< 0.01,< 0.01,< 0.01
"Nc1nccc(Oc2ccc(NC(=O)c3cn(C4CCOCC4)c(=O)n(-c4ccc(F)cc4)c3=O)cc2F)c1C#CCN1CCOCC1 [Example 56, N-(4-(2-amino-3-(3-morpholinoprop-1-ynyl)pyridin-4-yloxy)-3-fluorophenyl)-3-(4-fluorophenyl)-2,4-dioxo-1-(tetrahydro-2H-pyran-4-yl)-1,2,3,4-tetrahydropyrimidine-5-carboxamide]",< 1,< 0.1,< 0.01,< 1,,,,
"CC(C)n1cc(C(=O)Nc2ccc(Oc3ccnc(N)c3C#CCC3CCNCC3)c(F)c2)c(=O)n(-c2ccc(F)cc2)c1=O [Example 27, N-(4-(2-amino-3-(3-(piperidin-4-yl)prop-1-ynyl)pyridin-4-yloxy)-3-fluorophenyl)-3-(4-fluorophenyl)-1-isopropyl-2,4-dioxo-1,2,3,4-tetrahydropyrimidine-5-carboxamide]",,,,,< 0.01,< 0.01,< 0.01,< 0.01
"CC(C)n1cc(C(=O)Nc2ccc(Oc3ccnc(N)c3-c3cnn(C)c3)c(F)c2)c(=O)n(-c2ccc(F)cc2)c1=O [Example 7, N-(4-(2-amino-3-(1-methyl-1H-pyrazol-4-yl)pyridin-4-yloxy)-3-fluoropehynl)-1-isopropyl-2,4-dioxo-1,2,3,4-tetrahydropyrimidine-5-carboxamide]",,,,,< 1,< 0.01,< 0.01,< 0.01
"CN1CCC(CC#Cc2c(Oc3ccc(NC(=O)c4nn(C)c(=O)n(-c5ccc(F)cc5)c4=O)cc3F)ccnc2N)CC1 [Example 45, N-(4-((2-amino-3-(3-(1-methylpiperidin-4-yl)prop-1-yn-1-yl)pyridin-4-yl)oxy)-3-fluorophenyl)-4-(4-fluorophenyl)-2-methyl-3,5-dioxo-2,3,4,5-tetrahydro-1,2,4-triazine-6-carboxamide]",< 1,< 1,< 1,< 10,,,,
"CCCn1cc(C#Cc2c(Oc3ccc(NC(=O)c4cn(C(C)C)c(=O)n(-c5ccc(F)cc5)c4=O)cc3F)ccnc2N)cn1 [Example 13, N-(4-(2-amino-3-((1-propyl-1H-pyrazol-4-yl)ethynyl)pyridin-4-yloxy)-3-fluorophenyl)-3-(4-fluorophenyl)-1-isopropyl-2,4-dioxo-1,2,3,4-tetrahydropyrimidine-5-carboxamide]",,,,,< 0.01,< 0.01,< 0.01,< 0.01
"CC(C)n1cc(C(=O)Nc2ccc(Oc3ccnc(N)c3-c3ccccc3)c(F)c2)c(=O)n(-c2ccc(F)cc2)c1=O [Example 22, N-(4-(2-amino-3-phenylpyridin-4-yloxy)-3-fluorophenyl)-3-(4-fluorophenyl)-1-isopropyl-2,4-dioxo-1,2,3,4-tetrahydropyrimidine-5-carboxamide]",,,,,< 0.1,< 0.01,< 0.1,< 0.1
"CC(C)n1cc(C(=O)Nc2ccc(Oc3ccnc(N)c3C#Cc3ccccn3)c(F)c2)c(=O)n(-c2ccc(F)cc2)c1=O [Example 9, N-(4-(2-amino-3-(pyridin-2-ylethnyl)pyridin-4-yloxy)-3-fluorophenyl)-3-(4-fluorophenyl)-1-isopropyl-2,4-dioxo-1,2,3,4-tetrahydropyrimidine-5-carboxamide]",,,,,> 10,< 0.1,< 0.1,< 0.1
"Nc1nccc(Oc2ccc(NC(=O)c3c[nH]c(=O)n(-c4ccc(F)cc4)c3=O)cc2F)c1C#CCC1CCNCC1 [Example 53, N-(4-(2-amino-3-(3-(piperidin-4-yl)prop-1-ynyl)pyridin-4-yloxy)-3-fluorophenyl)-3-(4-fluorophenyl)-2,4-dioxo-1,2,3,4-tetrahydropyrimidine-5-carboxamide]",< 10,< 10,< 1,< 10,,,,
"CN(C)C(=O)Cn1cc(C(=O)Nc2ccc(Oc3ccnc(N)c3C#CC(C)(C)N3CCNCC3)c(F)c2)c(=O)n(-c2ccc(F)cc2)c1=O [Example 35, N-(4-((2-amino-3-(3-methyl-3-(piperazin-1-yl)but-1-yn-1-yl)pyridin-4-yl)oxy)-3-fluorophenyl)-1-(2-(dimethylamino)-2-oxoethyl)-3-(4-fluorophenyl)-2,4-dioxo-1,2,3,4-tetrahydropyrimidine-5-carboxamide]",> 10,> 10,< 10,< 10,,,,
"Cn1nc(C(=O)Nc2ccc(Oc3ccnc(N)c3C#CC(C)(C)N3CCOCC3)c(F)c2)c(=O)n(-c2ccc(F)cc2)c1=O [Example 48, N-(4-(2-amino-3-(3-methyl-3-morpholinobut-1-ynyl)pyridin-4-yloxy)-3-fluorophenyl)-4-(4-fluorophenyl)-2-methyl-3,5-dioxo-2,3,4,5-tetrahydro-1,2,4-triazine-6-carboxamide]",< 1,< 1,< 1,< 1,,,,
"CN1CCC(CC#Cc2c(Oc3ccc(NC(=O)c4cn(CC(=O)N(C)C)c(=O)n(-c5ccc(F)cc5)c4=O)cc3F)ccnc2N)CC1 [Example 37, N-(4-((2-amino-3-(3-(1-methylpiperidin-4-yl)prop-1-yn-1-yl)pyridin-4-yl)oxy)-3-fluorophenyl)-1-(2-(dimethylamino)-2-oxoethyl)-3-(4-fluorophenyl)-2,4-dioxo-1,2,3,4-tetrahydropyrimidine-5-carboxamide]",< 10,< 10,< 10,< 10,,,,
